{
  "source": "patent US10092568B2",
  "about": "“CBP/Catenin antagonists for enhancing asymmetric division of somatic stem cells” (University of Southern California, priority 2010, dated 2018)",
  "key": {"[1]": {"test_system": "SW620 xenograft", "assay": "Nude mouse SW620 xenograft model of colon cancer", "type": "in vivo", "from_the_text": "(§1) Cancer. The importance of Wnt signaling in colorectal cancer is undisputed. Applicant's investigation on the therapeutic utility of ICG-001 therefore quite naturally began with colon cancer."}, "[2]": {"test_system": "imatinib resistant (IR) CML cells / leukemia stem cells", "assay": "Imatinib resistant CML, in vitro and NOD/SCID/IL2rγ−/− mouse model of engrafted human CML", "type": "in vivo", "from_the_text": "Chronic myelogenous leukemia (CML). Despite the stunning clinical success achieved to date in chronic phase CML patients treated with the BCR-ABL antagonist Gleevec/Imatinib (IM), responses in advanced phase patients are often short-lived, and patients invariably undergo disease progression. Furthermore, resistance to IM develops in 2% to 4% of patients annually and IM dose escalation is generally not sufficient to control the disease. Several mechanisms that contribute to tyrosine kinase inhibitor (TKI) resistance have been proposed including the insensitivity of quiescent CML stem cells to TKIs due to low expression of BCR-ABL and the emergence of drug resistant leukemic clones associated with increased nuclear catenin levels, a hallmark of increased Wnt/catenin transcription. […] Epigenetic silencing of negative regulators of the Wnt signaling cascade is also frequently associated with leukemias, including CML. […] The mice treated with one course (28 days from day 13-41 after leukemia engraftment) of CBP/catenin antagonist plus bcr-abl antagonist are essentially cured of leukemia and live as long (approximately 2 years) as their littermates that were never engrafted with leukemia."}, "[3]": {"test_system": "rat type II lung epithelial cells", "assay": "TGF-β1-induced EMT genes in lung epithelial cells", "type": "cell-based", "from_the_text": "(§2) Fibrosis. Idiopathic pulmonary fibrosis (IPF)/usual interstitial pneumonia (UIP), the most common of the idiopathic interstitial pneumonias, is a devastating, progressive disorder characterized by excessive fibroblast proliferation and extracellular matrix remodeling leading to lung destruction. There is currently no effective therapy for this uniformly fatal disease. An emerging paradigm proposes a central role for alveolar epithelial cell injury and dysregulated repair in the pathogenesis of IPF. Injury to the epithelium is thought to initiate a cascade of fibroblast activation and matrix deposition, which in predisposed hosts fails to resolve as it would in the course of normal wound repair. Epithelial cells undergo excessive apoptosis, whereas fibroblasts are less amenable to apoptosis and manifest increased survival. The well-characterized model of bleomycin-induced lung injury has been extensively used to investigate potential pathways involved in the pathogenesis of pulmonary fibrosis and to explore therapeutic approaches."}, "[4]": {"test_system": "fibroblasts from IPF patients", "assay": "S100A4/FSP-1 expression in fibroblasts from IPF patients in vitro", "type": "cell-based", "from_the_text": "as §2"}, "[5]": {"test_system": "PC-12 cells with mutant PS-1 (L286V)", "assay": "Neuronal differentiation of PC-12 cells with FAD mutant PS-1 (L286V)", "type": "cell-based", "from_the_text": "However, the effects of PS-1 mutations on the stability of beta-catenin, TCF/beta-catenin signaling, and thereby its potential role in AD remain controversial. Applicant has shown that introduction of a FAD mutant PS-1 (L286V) into PC-12 cells causes increased TCF/beta-catenin signaling, leading to the inhibition of neurite outgrowth. […] In the CNS, EpB2 expression is associated with axonal guidance (16). […] In initial in vivo studies, applicant treated penta-transgenic mice that over express mutant APP (695) (Swedish (K670N, M671L), Florida (I716V) and London (V717I)) and PS-1 (M146L and L286V) mutations with ICG-001 for 2 months (months 2-4). These mice normally develop massive cerebral deposition of Aβ starting at 6 weeks of age."}, "[6]": {"test_system": "Colorectal cancer cells", "assay": "ChIP and message of Wnt/beta-catenin target genes in colorectal cancer cells", "type": "cell-based", "method": "The effects of CBP/catenin antagonism on Wnt target genes are highly promoter specific. Colorectal cancer cells were treated with ICG-001, thereby disrupting the CBP/catenin interaction, and then examined for coactivator occupancy at the promoter regions of several Wnt/beta-catenin regulated target genes using a Chromatin Immuno-precipitation Assay (ChIP), a technique that allows one to determine what proteins are associated with a particular promoter. […] Furthermore, there are other Wnt/catenin-regulated genes that selectively utilize p300 for transcriptional coactivation. An interesting example of this differential coactivator usage concerns the expression of the gene EphB2, a known Wnt/TCF/beta-catenin target gene. As almost 90% of colon cancers have high aberrant Wnt/TCF/beta-catenin activation, it would follow that EpHB2 expression would be increased with colon cancer disease progression. This, however, is not the case as EphB2 expression is generally lost in late stage colorectal cancers (34). Furthermore, disruption of EphB2 in the Min mouse, which carries a defective APC tumor suppressor gene, results in highly invasive carcinomas as opposed to the normal adenomas."}, "[7]": {"test_system": "Min mouse", "assay": "Min mouse polyp model", "type": "in vivo", "from_the_text": "as §1"}, "[8]": {"test_system": "Adenosine Receptor A2B (ADORA2B)", "assay": "Gene expression array of cells in culture", "type": "cell-based", "settings": "colonic epithelium, 10 uM"}, "[9]": {"test_system": "human anagen hair follicles", "settings": "cited from earlier work"}, "[10]": {"target": "CBP/beta-catenin interaction (Homo sapiens, UniProt Q92793)", "sequence (Q92793 whole entry, the tested form may be a part)": "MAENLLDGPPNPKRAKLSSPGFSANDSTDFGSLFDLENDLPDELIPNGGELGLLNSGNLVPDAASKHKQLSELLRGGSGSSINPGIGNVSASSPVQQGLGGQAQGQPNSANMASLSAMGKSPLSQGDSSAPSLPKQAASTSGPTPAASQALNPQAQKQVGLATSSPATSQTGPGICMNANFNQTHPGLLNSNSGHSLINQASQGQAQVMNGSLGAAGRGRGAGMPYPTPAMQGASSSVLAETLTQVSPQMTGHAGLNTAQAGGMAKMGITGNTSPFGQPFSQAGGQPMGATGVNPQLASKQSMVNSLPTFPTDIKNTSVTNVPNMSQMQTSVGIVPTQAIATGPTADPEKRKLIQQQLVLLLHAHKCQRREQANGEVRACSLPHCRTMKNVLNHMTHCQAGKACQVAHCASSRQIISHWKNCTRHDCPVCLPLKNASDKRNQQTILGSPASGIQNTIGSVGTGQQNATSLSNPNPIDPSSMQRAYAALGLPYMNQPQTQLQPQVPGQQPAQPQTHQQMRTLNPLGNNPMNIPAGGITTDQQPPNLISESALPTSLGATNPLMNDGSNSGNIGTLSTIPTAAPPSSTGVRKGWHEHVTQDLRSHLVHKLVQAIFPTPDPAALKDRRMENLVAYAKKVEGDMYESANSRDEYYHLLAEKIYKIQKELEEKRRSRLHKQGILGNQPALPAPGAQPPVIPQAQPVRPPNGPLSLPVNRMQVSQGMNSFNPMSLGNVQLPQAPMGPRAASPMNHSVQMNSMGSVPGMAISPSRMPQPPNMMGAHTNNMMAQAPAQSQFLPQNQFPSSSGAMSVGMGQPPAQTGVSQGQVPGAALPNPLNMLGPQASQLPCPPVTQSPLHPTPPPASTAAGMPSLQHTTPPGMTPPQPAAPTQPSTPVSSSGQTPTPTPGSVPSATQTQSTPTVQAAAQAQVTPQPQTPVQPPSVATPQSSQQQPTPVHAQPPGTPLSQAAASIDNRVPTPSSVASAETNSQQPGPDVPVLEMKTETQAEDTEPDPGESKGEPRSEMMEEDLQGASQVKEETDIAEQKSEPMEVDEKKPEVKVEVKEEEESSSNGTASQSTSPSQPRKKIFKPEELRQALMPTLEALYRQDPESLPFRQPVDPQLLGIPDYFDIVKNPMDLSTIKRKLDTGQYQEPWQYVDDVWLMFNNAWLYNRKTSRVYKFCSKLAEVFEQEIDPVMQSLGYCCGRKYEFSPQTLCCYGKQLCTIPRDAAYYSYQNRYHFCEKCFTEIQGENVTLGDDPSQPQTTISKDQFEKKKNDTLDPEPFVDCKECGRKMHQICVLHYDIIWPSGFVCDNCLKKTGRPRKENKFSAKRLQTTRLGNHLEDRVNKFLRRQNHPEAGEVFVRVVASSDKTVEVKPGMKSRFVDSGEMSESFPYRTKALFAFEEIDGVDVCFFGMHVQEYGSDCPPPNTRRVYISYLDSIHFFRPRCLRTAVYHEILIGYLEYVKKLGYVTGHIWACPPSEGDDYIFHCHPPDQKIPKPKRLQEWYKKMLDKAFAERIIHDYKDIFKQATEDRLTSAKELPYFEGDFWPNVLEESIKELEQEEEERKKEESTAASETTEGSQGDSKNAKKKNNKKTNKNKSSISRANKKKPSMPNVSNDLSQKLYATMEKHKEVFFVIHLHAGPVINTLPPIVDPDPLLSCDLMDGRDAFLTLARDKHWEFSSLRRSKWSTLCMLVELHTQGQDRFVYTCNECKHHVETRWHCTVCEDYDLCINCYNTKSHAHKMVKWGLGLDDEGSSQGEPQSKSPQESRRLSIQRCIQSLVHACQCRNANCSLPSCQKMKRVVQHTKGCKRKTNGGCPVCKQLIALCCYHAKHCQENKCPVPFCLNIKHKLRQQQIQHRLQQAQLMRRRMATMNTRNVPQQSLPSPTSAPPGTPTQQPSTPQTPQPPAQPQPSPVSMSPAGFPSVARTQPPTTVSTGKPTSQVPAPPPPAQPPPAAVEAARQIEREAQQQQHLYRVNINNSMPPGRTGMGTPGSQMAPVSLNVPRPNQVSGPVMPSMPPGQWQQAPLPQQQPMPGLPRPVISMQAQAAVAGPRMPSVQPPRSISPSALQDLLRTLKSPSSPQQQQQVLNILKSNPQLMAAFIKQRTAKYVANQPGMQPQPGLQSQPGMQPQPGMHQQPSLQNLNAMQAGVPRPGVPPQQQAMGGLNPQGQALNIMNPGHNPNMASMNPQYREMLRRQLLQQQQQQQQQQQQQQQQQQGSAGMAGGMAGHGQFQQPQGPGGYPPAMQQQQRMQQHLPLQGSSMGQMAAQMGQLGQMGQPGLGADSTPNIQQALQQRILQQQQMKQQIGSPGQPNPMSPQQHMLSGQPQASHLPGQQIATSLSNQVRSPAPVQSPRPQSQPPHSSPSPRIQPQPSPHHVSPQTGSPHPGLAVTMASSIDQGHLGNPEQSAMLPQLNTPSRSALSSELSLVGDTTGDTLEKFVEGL", "assay": "Disruption of the CBP/beta-catenin interaction", "type": "biochemical", "from_the_text": "(§3) Applicant next mapped the binding domains between CBP and beta-catenin, as well as between p300 and beta-catenin. The C-terminal trans-activating region of beta-catenin (647-781) interacted with the same 1-111 amino acids of both CBP and p300 (23). However, only the interaction between CBP and beta-catenin was disrupted by ICG-001, and not the p300/beta-catenin interaction."}, "[11]": {"test_system": "Colorectal cancer cells", "assay": "Survivin expression and cytotoxicity in colorectal cancer cells", "type": "cell-based", "from_the_text": "as §1"}, "[12]": {"test_system": "p300/beta-catenin interaction", "assay": "Disruption of the p300/beta-catenin interaction", "type": "biochemical", "from_the_text": "as §3\nIQ-1. In addition to ICG-001, a screen of a large chemical library for maintenance of pluripotency in mES cells led to the identification of another compound, termed IQ-1 (FIG. 2b). […] I-Q-1 diminishes the interaction between p300 and beta-catenin thereby increasing the CBP/beta-catenin interaction (24)."}},
  "data": [
    {"smiles": "O=C1[C@H](Cc2ccc(O)cc2)N2C(=O)CCN(C(=O)NCc3ccccc3)[C@H]2CN1Cc1cccc2ccccc12", "note": "[ICG-001]", "values": [
      {"measurement": "tumor growth", "setting": "[1]", "value": "reducing tumor growth"},
      {"measurement": "drug resistant leukemia stem cells", "setting": "[2]; NOD/SCID/IL2rγ−/− mice engrafted with human CML", "value": "can be eliminated"},
      {"measurement": "differentiation of the IR cells", "setting": "[2]; in vitro and in vivo", "value": "induces the differentiation"},
      {"measurement": "effects on normal endogenous hematopoiesis", "setting": "[2]; mouse, in vivo", "value": "without deleterious effects"},
      {"measurement": "TGF-β1-induced up-regulation of α-SMA and type I collagen", "setting": "[3]", "value": "prevents"},
      {"measurement": "expression of S100A4/FSP-1", "setting": "[4]", "value": "significantly decreased"},
      {"measurement": "EpB2 expression", "setting": "[5]", "value": "again increased"},
      {"measurement": "neuronal differentiation and neurite outgrowth", "setting": "[5]", "value": "rescues the defects"},
      {"measurement": "expression of GAP43", "setting": "[5]; NGF-induced differentiation", "value": "dramatically increased"},
      {"measurement": "expression of EphB2", "setting": "[6]; colon cancer cells", "value": "increasing the expression"},
      {"measurement": "c-myc message", "setting": "[6]; colorectal cancer cells", "value": "slight increase in message"},
      {"measurement": "cyclin D1 message", "setting": "[6]; colorectal cancer cells", "value": "decrease in message"},
      {"measurement": "survivin message", "setting": "[6]; colorectal cancer cells", "value": "decreased message"},
      {"measurement": "polyps", "setting": "[7]", "value": "reducing polyps"},
      {"measurement": "increase of expression of adenosine receptors (ADORA2B)", "setting": "[8]", "value": "~10", "unit": "×"},
      {"measurement": "hair fiber elongation", "setting": "[9]; dose-dependent", "value": "significantly reduced"},
      {"measurement": "survivin expression", "setting": "[9]; microdissected hair follicle", "value": "decreased"},
      {"measurement": "interaction between CBP and beta-catenin", "setting": "[10]", "value": "disrupted"},
      {"measurement": "survivin expression", "setting": "[11]", "value": "down-regulated"},
      {"measurement": "cytotoxicity", "setting": "[11]; colorectal cancer cells versus normal colonic epithelial cells", "value": "selective cytotoxicity"},
      {"measurement": "p300/beta-catenin interaction", "setting": "[12]", "value": "without affecting"}
    ]}
  ]
}
